Read-outs that look alike come from different tables or passages of the source.
How the values were obtained:
[1] = test system: Acinetobacter baumannii AYE; assay: Broth microdilution MIC; type: cell-based
Experimental: (§1) Assays were carried out by a broth microdilution method using a 96-well plate according to guidelines defined by the European Committee on Antimicrobial Susceptibility Testing as described here. Overnight cultures of strains were grown in tryptic soy broth (TSB) at 37° C. The overnight cultures were diluted to a concentration of 1×10^6 bacteria/ml (OD600=0.01) in TSB media. To each well on 96 well plates, 100 μl of bacterially infected media at a concentration of 1×10^6/ml and compounds at various concentrations were added. An uninfected control (i.e. no bacteria) was also included. The plates were incubated at 37° C. wrapped in parafilm for 20 hrs. The growth was assessed by measuring the absorbance at 600 nm. The minimum inhibitory concentration (MIC) was determined to be the lowest concentration of compound that inhibits visible bacterial growth.

[2] = test system: EMRSA-15; assay: Broth microdilution MIC; type: cell-based
Experimental: as §1

[3] = test system: Enterococcus faecalis 12201; assay: Broth microdilution MIC; type: cell-based
Experimental: as §1

[4] = test system: Enterococcus faecalis 775; assay: Broth microdilution MIC; type: cell-based
Experimental: as §1

[5] = test system: MSSA 9144; assay: Broth microdilution MIC; type: cell-based; conditions: Staphylococcus aureus
Experimental: as §1

[6] = test system: Pseudomonas aeruginosa PA01; assay: Broth microdilution MIC; type: cell-based
Experimental: as §1

[7] = test system: Pseudomonas aeruginosa 13437; assay: Broth microdilution MIC; type: cell-based
Experimental: as §1

[8] = test system: Enterococcus faecium 12204; assay: Broth microdilution MIC; type: cell-based
Experimental: as §1

[9] = test system: Acinetobacter baumannii 17978; assay: Broth microdilution MIC; type: cell-based
Experimental: as §1

[10] = test system: Klebsiella pneumoniae 13368; assay: Broth microdilution MIC; type: cell-based
Experimental: as §1

[11] = test system: Escherichia coli NCTC12923; assay: Broth microdilution MIC; type: cell-based
Experimental: as §1

[12] = test system: EMRSA-16; assay: Broth microdilution MIC; type: cell-based
Experimental: as §1

[13] = test system: Klebsiella pneumoniae M6; assay: Broth microdilution MIC; type: cell-based
Experimental: as §1

[14] = test system: Gram-positive and Gram-negative bacterial species; assay: Broth microdilution MIC, panel summary; type: cell-based; conditions: read-out: MIC values
Experimental: as §1

[15] = test system: T1, A. thaliana DHDPS; assay: DHDPS-DHDPR coupled assay, dose response inhibitor assay; type: biochemical, Arabidopsis thaliana
T1 construct: AtDHDPS|10|0.00008; no borders, domain or tags given
Experimental: DHDPS enzyme activity was determined using the coupled assay in a Cary 4000 UV/Vis spectrophotometer at 340 nm in 1 cm acrylic cuvettes. A master mix was prepared for each reaction as per Table 1. Reaction mixtures containing enzymes, pyruvate, buffer and NADPH were incubated at 30° C. for 12 mins before the addition of ASA to initiate the reaction. The oxidation of NADPH to NADP^+ was then monitored at 340 nm at 30° C. as a function of time. The initial rate (ΔA340·min^−1) was calculated from the slope of the linear portion of the A340 versus time profile. All experiments were carried out in triplicate. The enzyme kinetic parameters, including KM values, were determined using the Michaelis-Menten equation (Equation 1). Unless otherwise stated, all kinetic data were fitted using the built-in equations in GraphPad Prism.
To determine/C50 values for the inhibitors, A. thaliana DHDPS enzyme activity was measured using the coupled assay (detailed above) in the presence of increasing concentrations of inhibitor. The initial rate was then plotted as a function of the log 10 of the inhibitor concentration and the/C50 determined according to Equation 2.

O=C(O)CN1C(=O)S/C(=C\c2ccc(F)cc2)C1=O [Compound 1, (Z)-2-(5-(4-Fluorobenzylidene)-2,4-dioxothiazolidin-3-yl)acetic Acid] showed an MIC ([1]; replicate 1, read-out: MIC #1) greater than 64 µg/mL, an MIC ([1]; replicate 2, read-out: MIC #2) greater than 64 µg/mL and an MIC ([1]; replicate 3, read-out: MIC #3) greater than 64 µg/mL. The MIC ([2]; EMRSA-15, replicate 1, read-out: MIC #1) was greater than 64 µg/mL, the MIC ([2]; EMRSA-15, replicate 2, read-out: MIC #2) was greater than 64 µg/mL and the MIC ([2]; EMRSA-15, replicate 3, read-out: MIC #3) was greater than 64 µg/mL. For the same compound, the MIC ([3]; Enterococcus faecalis 12201, replicate 1, read-out: MIC #1) was greater than 64 µg/mL, the MIC ([3]; Enterococcus faecalis 12201, replicate 2, read-out: MIC #2) was greater than 64 µg/mL and the MIC ([3]; Enterococcus faecalis 12201, replicate 3, read-out: MIC #3) was greater than 64 µg/mL. It also gave an MIC ([4]; Enterococcus faecalis 775, replicate 1, read-out: MIC #1) greater than 64 µg/mL, an MIC ([4]; Enterococcus faecalis 775, replicate 2, read-out: MIC #2) greater than 64 µg/mL and an MIC ([4]; Enterococcus faecalis 775, replicate 3, read-out: MIC #3) greater than 64 µg/mL. For the same compound, the MIC ([5]; MSSA 9144, replicate 1, read-out: MIC #1) was greater than 64 µg/mL, the MIC ([5]; MSSA 9144, replicate 2, read-out: MIC #2) was greater than 64 µg/mL and the MIC ([5]; MSSA 9144, replicate 3, read-out: MIC #3) was greater than 64 µg/mL. It also gave an MIC ([6]; Pseudomonas aeruginosa PA01, replicate 1, read-out: MIC #1) greater than 64 µg/mL, an MIC ([6]; Pseudomonas aeruginosa PA01, replicate 2, read-out: MIC #2) greater than 64 µg/mL and an MIC ([6]; Pseudomonas aeruginosa PA01, replicate 3, read-out: MIC #3) greater than 64 µg/mL. The MIC ([7]; Pseudomonas aeruginosa 13437, replicate 1, read-out: MIC #1) was greater than 64 µg/mL, the MIC ([7]; Pseudomonas aeruginosa 13437, replicate 2, read-out: MIC #2) was greater than 64 µg/mL and the MIC ([7]; Pseudomonas aeruginosa 13437, replicate 3, read-out: MIC #3) was greater than 64 µg/mL. The MIC ([8]; Enterococcus faecium 12204, replicate 1, read-out: MIC #1) was greater than 64 µg/mL, the MIC ([8]; Enterococcus faecium 12204, replicate 2, read-out: MIC #2) was greater than 64 µg/mL and the MIC ([8]; Enterococcus faecium 12204, replicate 3, read-out: MIC #3) was greater than 64 µg/mL. The MIC ([9]; Acinetobacter baumannii 17978, replicate 1, read-out: MIC #1) was greater than 64 µg/mL, the MIC ([9]; Acinetobacter baumannii 17978, replicate 2, read-out: MIC #2) was greater than 64 µg/mL and the MIC ([9]; Acinetobacter baumannii 17978, replicate 3, read-out: MIC #3) was greater than 64 µg/mL. For the same compound, the MIC ([10]; Klebsiella pneumoniae 13368, replicate 1, read-out: MIC #1) was greater than 64 µg/mL, the MIC ([10]; Klebsiella pneumoniae 13368, replicate 2, read-out: MIC #2) was greater than 64 µg/mL and the MIC ([10]; Klebsiella pneumoniae 13368, replicate 3, read-out: MIC #3) was greater than 64 µg/mL. It also gave an MIC ([11]; Escherichia coli NCTC12923, replicate 1, read-out: MIC #1) greater than 64 µg/mL, an MIC ([11]; Escherichia coli NCTC12923, replicate 2, read-out: MIC #2) greater than 64 µg/mL and an MIC ([11]; Escherichia coli NCTC12923, replicate 3, read-out: MIC #3) greater than 64 µg/mL. The MIC ([12]; EMRSA-16, replicate 1, read-out: MIC #1) was greater than 64 µg/mL, the MIC ([12]; EMRSA-16, replicate 2, read-out: MIC #2) was greater than 64 µg/mL and the MIC ([12]; EMRSA-16, replicate 3, read-out: MIC #3) was greater than 64 µg/mL. For the same compound, the MIC ([13]; Klebsiella pneumoniae M6, replicate 1, read-out: MIC #1) was greater than 64 µg/mL, the MIC ([13]; Klebsiella pneumoniae M6, replicate 2, read-out: MIC #2) was greater than 64 µg/mL and the MIC ([13]; Klebsiella pneumoniae M6, replicate 3, read-out: MIC #3) was greater than 64 µg/mL. For the same compound, the MIC [14] was greater than 64 µg/mL and the IC50 [15] was 92.4 µM.

Reference: patent US20200068890A1 (Person to Whom the Inventor is Obligated to Assign, priority 2017, published 2020)
